Test results from patent US10350262B2, “MCJ agonists and uses therefor” (priority 2015, dated 2019).

Columns and labels:
Molm13 cells = assay: Viable cell number of Molm13 AML cells; type: cell-based; conditions: AC220 2 nM, 3 days
MCF7/ADR cells [1] = assay: Bright field microscopy of MCF7/ADR cells; type: cell-based, human; conditions: 50 μM, two days; relative to medium only
Method: FIG. 3 provides photomicrographic images of MCF7/ADR cells that were incubated for two days in column (1) media alone; column (2) media that included a 50 μM concentration of an N-MCJ polypeptide (SEQ ID NO:2); column (3) media that included a 50 μM concentration of the TAT-N-MCJ polypeptide (SEQ ID NO:18); and column (4) media that included a 50 μM concentration of the TAT-N-MCJ-MTS polypeptide (SEQ ID NO:6).
Bright Field Microscopy. Live cells were imaged at an inverted bright field microscope (Leica Microsystems). 400× magnification was used.

MCF7/ADR cells [2] = assay: Viable cell count of MCF7/ADR cells (Trypan blue); type: cell-based, human; conditions: control peptide lacking the mts
Method: FIG. 15A provides results of Western blot analysis for MCJ in MCF7 cells and MCF7/ADR (ADR) cells. Actin was used as loading control. […] Viable cells were counted 2 days later.
FIG. 16A-B provides graphs showing response to MCJ agonists. […] Cells were harvested 2 days later and viable cells were counted. […] Mice were harvested at day 4. The size of a tumor over time was determined by caliper measurements, and is represented as a percentage relative to the initial size prior to the treatment. p<0.05 as determined by a paired t-test.
Cell Culture. MCF7 and MCF7/ADR cells were a kind gift from Dr. Ken Cowan (National Cancer Institute, Bethesda, Md.). MCF7/siMCJ cells were generated by stable transfection with a plasmid expressing a shRNA for MCJ (siMCJ) as described in Hatle, K. M., et al., Mol Cell Biol 27, 2952-2966 (2007). All cells were maintained at 37 C, 5% CO2 in RPMI-1640 (Life technologies, Inc., Gaithersburg, Md.) containing 5% FBS.
Cell count. Cells were trypsinized, washed, and resuspended in medium. Number of viable cells was measured by counting using Trypan blue dye to exclude dead cells (visualized as blue).
Doxorubicin and peptides treatment in vitro. Doxorubicin (Sigma-Aldrich) was used at 3 μM final concentration. The three different peptides described in the examples (SEQ ID NO: 2, 18 or 6) were resuspended at 10 mM stock concentration in PBS. The peptides were used a different concentration as indicated for each example (1, 10, or 50 μM). Cells were plated the day prior the treatment (18-20 h prior to the treatment). For treatments with peptides only, peptides were added to the plates at the indicated concentrations, and after 2 or 3 days (as indicated for each example) cells were trypsinized, resuspended, and counted. For the treatment with doxorubicin and peptides, cells were pretreated with the corresponding peptide for 4 h prior to adding doxorubicin.
MCF7/ADR cells were incubated (using standard procedures) for three days in media alone or in media plus three different MCJ based polypeptides each at a concentration of 50 μM in media. The cells of set one were incubated in media and served as a control set. The cells of set two were incubated in media that included a 50 μM concentration of a MCJ polypeptide without a targeting agent polypeptide. The amino acid sequence of the N-MCJ polypeptide without a targeting agent polypeptide was […] (SEQ ID NO:2). The cells of set three were incubated in media that included a 50 μM concentration of a TAT-N-MCJ polypeptide. The amino acid sequence of the TAT-N-MCJ polypeptide was: […] (SEQ ID NO:18). […]

Molecule	viability (number of viable cells) (Molm13 cells)	proliferation / cells attached to the culture plate (photomicrographs) (MCF7/ADR cells [1])	expansion of cells (viable cells) (MCF7/ADR cells [2])
CC(C)(C)c1cc(NC(=O)Nc2ccc(-c3cn4c(n3)sc3cc(OCCN5CCOCC5)ccc34)cc2)no1 [AC220, reference compound]	effective at inducing Molm13 cell death		
MAARGVIAPVGESLRYAEYL (listed as Homo sapiens) [N-MCJ]		did not affect proliferation of the cells	
YGKKRRQRRGMAARGVIAPVGESLRYAEYL [TAT-N-MCJ]		did not affect proliferation of the cells	had no effect
